Test system: human macrophage cells
Experiment: AGE-albumin synthesis and release by macrophages under oxidative stress (ELISA)
Type: cell-based
Conditions: FIG. 3
Method: For the in vitro study, immortal human macrophage cells were employed. The macrophages were grown in DMEM (Dulbecco's modified Eagle's medium, Gibco)-high glucose supplemented with 10% heat-inactivated FBS (fetal bovine serum, Gibco) and […] gentamicin (Sigma-Aldrich) at 37° C. in a 5% CO2 atmosphere.
After incubation at 4° C. for 12 hrs, the plates were washed three times with 1×PBS to remove the antibody which remained non-immobilized to the well, and then was filled with 5% BSA. […] After the plates were washed three time with 1×PBS to remove the antigens which remained unreacted, an anti-AGE antibody (Abcam) was applied at a concentration of 1 ug/ml to each well and incubated at room temperature for 2 hrs. The antibody remaining unreacted was washed off with 1×PBS. Each well was incubated with 1 ug/ml peroxidase-conjugated secondary antibody (Vector laboratory) at room temperature for 2 hrs and washed with 1×PBS to remove the secondary antibodies which remained unreacted. Color was developed with TMB (3,3′,5,5′-tetramethylbenzidine) at room temperature for 20 min. When the TMP buffer turned dark blue, the color development was stopped with 2NH2SO4. Absorbance at 450 nm was read on an ELISA reader (VERSA Max, Molecular Devices) (FIG. 1).

SMILES | expression level of AGE-albumin (macrophages, addition of antioxidant, irrespective of hypoxia (H2O2)) | amount of AGE-albumin (macrophages exposed to hydrogen peroxide)
O=C1O[C@H]([C@@H](O)CO)C(O)=C1O [ascorbic acid] | drastically reduced | 
OO [hydrogen peroxide] |  | increased in a concentration-dependent manner

Source: US9371387B2 (GACHON UNIVERSITY OF INDUSTRY-ACADEMIC COOPERATION …, priority 2011, dated 2016)
